Assays:
Test in all cases: relative viability (nuclei count vs DMSO), 5 days (fraction); higher = more cells survive
[1] = compound: CC(C)C[C@H](NC(=O)[C@H](Cc1ccccc1)NC(=O)c1cnccn1)B(O)O [Bortezomib] + CS(=O)(=O)N1CCN(Cc2cc3nc(-c4cccc5[nH]ncc45)nc(N4CCOCC4)c3s2)CC1 [Pictilisib] (partner 1 µM)
Outline: (§1)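 A single step with final 0.05% Triton X-100, 1% formaldehyde and 1 ug/ml Hoechst fixed the cells and stained nuclei 5 days after treatment. Lung cancer cell lines in 1536-well plates had been treated by pin tool the day after seeding with one drug alone or a fixed anchor-drug dose plus five library-drug doses (not always all listed) in √10 steps, and nuclei were counted on 4× images. Relative viability is the ratio of nuclei in treated wells to nuclei in vehicle wells, taken as the median of duplicate plates.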

[2] = compound: COC1=CC(c2cc3ccccc3[nH]2)=N/C1=C\c1[nH]c(C)cc1C [Obatoclax] + N=C(N)NC(=N)NCCc1ccccc1 [Phenformin] (partner 250 µM)
Outline: as §1

[3] = compound: CC1=CC(=NN1)NC2=CC(=NC(=N2)/C=C/C3=CC=CC=C3)N4CCN(CC4)C + CC(=O)Nc1cccc(-n2c(=O)n(C3CC3)c(=O)c3c(Nc4ccc(I)cc4F)n(C)c(=O)c(C)c32)c1 [Trametinib] (partner 0.02 µM)
Outline: as §1

[4] = compound: CC1=CC(=NN1)NC2=CC(=NC(=N2)/C=C/C3=CC=CC=C3)N4CCN(CC4)C + CS(=O)(=O)N1CCN(Cc2cc3nc(-c4cccc5[nH]ncc45)nc(N4CCOCC4)c3s2)CC1 [Pictilisib] (partner 1 µM)
Outline: as §1

NCI-H1755
relative viability ([1]; first compound 0.0002 µM): 0.441
relative viability ([1]; first compound 0.000632 µM): 0.322
relative viability ([1]; first compound 0.002 µM): 0.43
relative viability ([1]; first compound 0.006325 µM): 0.171
relative viability ([1]; first compound 0.02 µM): 0.137
relative viability ([2]; first compound 0.01 µM): 0.622
relative viability ([2]; first compound 0.03162 µM): 0.6
relative viability ([2]; first compound 0.1 µM): 0.492
relative viability ([2]; first compound 0.3162 µM): 0.634
relative viability ([2]; first compound 1 µM): 0.541
relative viability ([3]; first compound 0.08 µM): 0.78
relative viability ([3]; first compound 0.253 µM): 0.728
relative viability ([3]; first compound 0.8 µM): 0.716
relative viability ([3]; first compound 2.53 µM): 0.66
relative viability ([3]; first compound 8 µM): 0.389
relative viability ([4]; first compound 0.08 µM): 0.418
relative viability ([4]; first compound 0.253 µM): 0.351
relative viability ([4]; first compound 0.8 µM): 0.419
relative viability ([4]; first compound 2.53 µM): 0.195
relative viability ([4]; first compound 8 µM): 0.0971

HCC-15
relative viability ([1]; first compound 0.0002 µM): 0.649
relative viability ([1]; first compound 0.000632 µM): 0.745
relative viability ([1]; first compound 0.002 µM): 0.733
relative viability ([1]; first compound 0.006325 µM): 0.396
relative viability ([1]; first compound 0.02 µM): 0.111
relative viability ([2]; first compound 0.01 µM): 0.486
relative viability ([2]; first compound 0.03162 µM): 0.432
relative viability ([2]; first compound 0.1 µM): 0.348
relative viability ([2]; first compound 0.3162 µM): 0.438
relative viability ([2]; first compound 1 µM): 0.327
relative viability ([3]; first compound 0.08 µM): 0.371
relative viability ([3]; first compound 0.253 µM): 0.378
relative viability ([3]; first compound 0.8 µM): 0.396
relative viability ([3]; first compound 2.53 µM): 0.278
relative viability ([3]; first compound 8 µM): 0.0994
relative viability ([4]; first compound 0.08 µM): 0.739
relative viability ([4]; first compound 0.253 µM): 0.548
relative viability ([4]; first compound 0.8 µM): 0.667
relative viability ([4]; first compound 2.53 µM): 0.299
relative viability ([4]; first compound 8 µM): 0.104

EMC-BAC-2
relative viability ([1]; first compound 0.0002 µM): 0.523
relative viability ([1]; first compound 0.000632 µM): 0.504
relative viability ([1]; first compound 0.002 µM): 0.544
relative viability ([1]; first compound 0.006325 µM): 0.476
relative viability ([1]; first compound 0.02 µM): 0.158
relative viability ([2]; first compound 0.01 µM): 0.478
relative viability ([2]; first compound 0.03162 µM): 0.526
relative viability ([2]; first compound 0.1 µM): 0.398
relative viability ([2]; first compound 0.3162 µM): 0.466
relative viability ([2]; first compound 1 µM): 0.371
relative viability ([3]; first compound 0.08 µM): 0.899
relative viability ([3]; first compound 0.253 µM): 0.698
relative viability ([3]; first compound 0.8 µM): 0.938
relative viability ([3]; first compound 2.53 µM): 0.691
relative viability ([3]; first compound 8 µM): 0.283
relative viability ([4]; first compound 0.08 µM): 0.507
relative viability ([4]; first compound 0.253 µM): 0.589
relative viability ([4]; first compound 0.8 µM): 0.468
relative viability ([4]; first compound 2.53 µM): 0.325
relative viability ([4]; first compound 8 µM): 0.154

NCI-H1734
relative viability ([1]; first compound 0.0002 µM): 0.483
relative viability ([1]; first compound 0.000632 µM): 0.301
relative viability ([1]; first compound 0.002 µM): 0.36
relative viability ([1]; first compound 0.006325 µM): 0.224
relative viability ([1]; first compound 0.02 µM): 0.128
relative viability ([2]; first compound 0.01 µM): 0.436
relative viability ([2]; first compound 0.03162 µM): 0.341
relative viability ([2]; first compound 0.1 µM): 0.318
relative viability ([2]; first compound 0.3162 µM): 0.318
relative viability ([2]; first compound 1 µM): 0.32
relative viability ([3]; first compound 0.08 µM): 0.628
relative viability ([3]; first compound 0.253 µM): 0.601
relative viability ([3]; first compound 0.8 µM): 0.56
relative viability ([3]; first compound 2.53 µM): 0.41
relative viability ([3]; first compound 8 µM): 0.121
relative viability ([4]; first compound 0.08 µM): 0.463
relative viability ([4]; first compound 0.253 µM): 0.422
relative viability ([4]; first compound 0.8 µM): 0.456
relative viability ([4]; first compound 2.53 µM): 0.214
relative viability ([4]; first compound 8 µM): 0.122

NCI-H1395
relative viability ([1]; first compound 0.0002 µM): 0.566
relative viability ([1]; first compound 0.000632 µM): 0.58
relative viability ([1]; first compound 0.002 µM): 0.531
relative viability ([1]; first compound 0.006325 µM): 0.445
relative viability ([1]; first compound 0.02 µM): 0.294
relative viability ([2]; first compound 0.01 µM): 0.449
relative viability ([2]; first compound 0.03162 µM): 0.38
relative viability ([2]; first compound 0.1 µM): 0.428
relative viability ([2]; first compound 0.3162 µM): 0.467
relative viability ([2]; first compound 1 µM): 0.44
relative viability ([3]; first compound 0.08 µM): 0.964
relative viability ([3]; first compound 0.253 µM): 1.03
relative viability ([3]; first compound 0.8 µM): 0.975
relative viability ([3]; first compound 2.53 µM): 0.659
relative viability ([3]; first compound 8 µM): 0.263
relative viability ([4]; first compound 0.08 µM): 0.668
relative viability ([4]; first compound 0.253 µM): 0.669
relative viability ([4]; first compound 0.8 µM): 0.583
relative viability ([4]; first compound 2.53 µM): 0.379
relative viability ([4]; first compound 8 µM): 0.239

HOP-62
relative viability ([1]; first compound 0.0002 µM): 0.752
relative viability ([1]; first compound 0.000632 µM): 0.667
relative viability ([1]; first compound 0.002 µM): 0.748
relative viability ([1]; first compound 0.006325 µM): 0.333
relative viability ([1]; first compound 0.02 µM): 0.0568
relative viability ([2]; first compound 0.01 µM): 0.693
relative viability ([2]; first compound 0.03162 µM): 0.699
relative viability ([2]; first compound 0.1 µM): 0.604
relative viability ([2]; first compound 0.3162 µM): 0.662
relative viability ([2]; first compound 1 µM): 0.404
relative viability ([3]; first compound 0.08 µM): 0.382
relative viability ([3]; first compound 0.253 µM): 0.297
relative viability ([3]; first compound 0.8 µM): 0.36
relative viability ([3]; first compound 2.53 µM): 0.337
relative viability ([3]; first compound 8 µM): 0.163
relative viability ([4]; first compound 0.08 µM): 0.558
relative viability ([4]; first compound 0.253 µM): 0.458
relative viability ([4]; first compound 0.8 µM): 0.919
relative viability ([4]; first compound 2.53 µM): 0.429
relative viability ([4]; first compound 8 µM): 0.0856

LK-2
relative viability ([1]; first compound 0.000632 µM): 0.559
relative viability ([1]; first compound 0.002 µM): 0.295
relative viability ([1]; first compound 0.006325 µM): 0.251
relative viability ([1]; first compound 0.02 µM): 0.245
relative viability ([2]; first compound 0.01 µM): 0.547
relative viability ([2]; first compound 0.03162 µM): 0.485
relative viability ([2]; first compound 0.1 µM): 0.483
relative viability ([2]; first compound 0.3162 µM): 0.464
relative viability ([2]; first compound 1 µM): 0.346
relative viability ([3]; first compound 0.08 µM): 0.836
relative viability ([3]; first compound 0.253 µM): 0.48
relative viability ([3]; first compound 0.8 µM): 0.697
relative viability ([3]; first compound 2.53 µM): 0.417
relative viability ([3]; first compound 8 µM): 0.129
relative viability ([4]; first compound 0.08 µM): 0.464
relative viability ([4]; first compound 0.253 µM): 0.694
relative viability ([4]; first compound 0.8 µM): 0.54
relative viability ([4]; first compound 2.53 µM): 0.279
relative viability ([4]; first compound 8 µM): 0.186

SW 1573
relative viability ([1]; first compound 0.0002 µM): 0.516
relative viability ([1]; first compound 0.000632 µM): 0.496
relative viability ([1]; first compound 0.002 µM): 0.399
relative viability ([1]; first compound 0.006325 µM): 0.0724
relative viability ([1]; first compound 0.02 µM): 0.0556
relative viability ([2]; first compound 0.01 µM): 0.333
relative viability ([2]; first compound 0.03162 µM): 0.31
relative viability ([2]; first compound 0.1 µM): 0.282
relative viability ([2]; first compound 0.3162 µM): 0.24
relative viability ([2]; first compound 1 µM): 0.153
relative viability ([3]; first compound 0.08 µM): 0.542
relative viability ([3]; first compound 0.253 µM): 0.636
relative viability ([3]; first compound 0.8 µM): 0.521
relative viability ([3]; first compound 2.53 µM): 0.12
relative viability ([3]; first compound 8 µM): 0.0764
relative viability ([4]; first compound 0.08 µM): 0.478
relative viability ([4]; first compound 0.253 µM): 0.478
relative viability ([4]; first compound 0.8 µM): 0.393
relative viability ([4]; first compound 2.53 µM): 0.179
relative viability ([4]; first compound 8 µM): 0.0655

Reference: the supplement of paper PMC10307832
